Measurements taken from patent US20250109140A1, “5-[5-(PIPERIDIN-4-YL)THIENO[3,2-C]PYRAZOL-2-YL]INDAZOLE DERIVATIVES AND RELATED COMPOUNDS AS MODULATORS FOR SPLICING NUCLEIC ACIDS AND FOR THE TREATMENT OF PROLIFERATIVE DISEASES” (REMIX THERAPUTICS INC., priority 2022, published 2025).
pEC50, pIC50: −log10 of the molar value. Where a name gives a salt, the structure may show the parent alone. Read-outs that look alike come from different tables or passages of the source.

Assays:
HiBiT-tagged MYB protein = test: HiBiT protein abundance assay, MYB (K562 HiBiT knock-in cells); assay type: cell-based, human; conditions: 24 hours treatment
Procedure, shortened: (§1)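 Luminescence from the Nano-Glo HiBiT lytic reagent measured tagged protein remaining in knock-in K562 cells after 24 h compound exposure (top dose 10 µM final, 3-fold, 10 points). Responses normalized between parental K562 and DMSO-treated lines were fit by four-parameter logistic to interpolate the 50% concentration.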

Target C = test: HiBiT protein abundance assay, Target C (K562 HiBiT knock-in cells); assay type: cell-based, human; conditions: 24 hours treatment
Procedure, shortened: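 The readout was Nano-Glo HiBiT lytic luminescence after 24 h compound exposure at 37 °C, in 10000 K562 knock-in cells/well. Compounds ran as 10-point, 3-fold series, top final […], ≤0.25% DMSO. Responses were scaled between parental K562 and DMSO-treated controls, and IC50 was interpolated at 50% from four-parameter logistic curves.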

HiBiT-tagged HTT protein = test: HiBiT protein abundance assay, HTT (K562 HiBiT knock-in cells); assay type: cell-based, human; conditions: 24 hours treatment
Procedure, shortened: as §1

HTT mRNA = test: Splicing RT-qPCR assay, HTT canonical (CJ) and alternative (AJ) junction mRNA; assay type: cell-based; conditions: Homo sapiens; for pEC50: AC50 = 50% response in AJ mRNA increase
Procedure, shortened: (§2)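 Readout is RT-qPCR of CJ and AJ mRNA in lysates from A673 or K562 cells given an 11-point titration (top dose 10 uM final, DMSO at most 0.25%) for 24 hours. Data were normalized to GAPDH, GUSB or PPIA, then to DMSO.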

MYB mRNA = test: Splicing RT-qPCR assay, MYB canonical (CJ) and alternative (AJ) junction mRNA; assay type: cell-based; conditions: Homo sapiens; for pEC50: AC50 = 50% response in AJ mRNA increase
Procedure, shortened: as §2

SMN2 mRNA = test: Splicing RT-qPCR gene panel, SMN2 canonical junction (CJ) mRNA; assay type: cell-based; conditions: Homo sapiens; Table 8; larger gene panel, decrease in CJ mRNA levels
Procedure, shortened: as §2

[1] = system: K562 (human chronic myelogenous leukemia) cells; test: Cell viability, Cell Titer Glo 2.0 assay, K562 cells; assay type: cell-based; conditions: 72 hours
Procedure, shortened: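 Luminescent Cell Titer Glo 2.0 readout after 72 h exposure (37° C, 5% CO2), medium-only wells as blank. Cells plated 500/well in IMDM with 10% FBS; test compounds diluted from DMSO series 1:100 into medium, 0.1% DMSO final.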

Target C mRNA = test: Splicing RT-qPCR gene panel, Target C canonical junction (CJ) mRNA; assay type: cell-based; conditions: Homo sapiens; Table 8; larger gene panel, decrease in CJ mRNA levels
Procedure, shortened: as §2

[2] = Table 7, RT-qPCR, A673 or K562 cells, 24 hours treatment
[3] = Table 7, IC50 = 50% response in CJ mRNA decrease, RT-qPCR, A673 or K562 cells, 24 hours treatment, read-out: HTT CJ
[4] = Table 8, larger gene panel, decrease in CJ mRNA levels, read-out: HTT CJ IC50
[5] = Table 7, IC50 = 50% response in CJ mRNA decrease, RT-qPCR, A673 or K562 cells, 24 hours treatment, read-out: MYB CJ
[6] = Table 8, larger gene panel, decrease in CJ mRNA levels, read-out: MYB CJ IC50

Compound | pIC50 (HiBiT-tagged MYB protein) | pIC50 (Target C) | pIC50 (HiBiT-tagged HTT protein) | pEC50 (HTT mRNA; [2]) | pIC50 (HTT mRNA; [3]) | pIC50 (HTT mRNA; [4]) | pEC50 (MYB mRNA; [2]) | pIC50 (MYB mRNA; [5]) | pIC50 (MYB mRNA; [6]) | pIC50 (SMN2 mRNA) | pIC50 [1] | pIC50 (Target C mRNA)
Cc1cn2cc(-n3cc4sc(C5CCNCC5)cc4n3)cc(Cl)c2n1 [Compound 172] | 5.00 to 6.00 | 6.00 to 7.00 | 6.00 to 7.00 | 6.00 to 7.00 | 6.00 to 7.00 | 6.00 to 7.00 | 6.00 to 7.00 | 5.00 to 6.00 | 6.00 to 7.00 | 6.00 to 7.00 | 5.00 to 6.00 | 5.00 to 6.00
Cn1cc2cc(-c3cc4cn([C@@H]5CCNC[C@H]5F)nc4s3)cc(F)c2n1 [Compound 187] | 6.00 to 7.00 | 6.00 to 7.00 | > 7.00 | > 7.00 | > 7.00 | > 7.00 | 6.00 to 7.00 | 6.00 to 7.00 | 6.00 to 7.00 | > 7.00 | 5.00 to 6.00 | 6.00 to 7.00
Cc1cn2nc(-c3cc4cn(C5CCNCC5)nc4s3)c(O)c2c(C)n1 [Compound 213, 4,6-dimethyl-2-[2-(piperidin-4-yl)thieno[2,3-c]pyrazol-5-yl]pyrazolo[1,5-a]pyrazin-3-ol hydrochloride] | < 5.00 | < 5.00 | < 5.00 | 5.00 to 6.00 | 5.00 to 6.00 | 5.00 to 6.00 | 5.00 to 6.00 | < 5.00 | 5.00 to 6.00 | 5.00 to 6.00 | 5.00 to 6.00 | < 5.00
Cn1cc2cc(-c3cc4cn(C5CCOCC5)nc4s3)cc(F)c2n1 [Compound 161, 7-fluoro-2-methyl-5-[2-(oxan-4-yl)thieno[2,3-c]pyrazol-5-yl]indazole] | < 5.00 | < 5.00 | < 5.00 | < 5.00 | < 5.00 | < 5.00 | < 5.00 | < 5.00 | < 5.00 | < 5.00 | < 5.00 | < 5.00
COc1c(-c2cc3cn(C4CCNCC4)nc3s2)cc2cn(C)nc2c1F [Compound 218] | 6.00 to 7.00 | 6.00 to 7.00 | > 7.00 | 6.00 to 7.00 | > 7.00 | 6.00 to 7.00 | 6.00 to 7.00 | 6.00 to 7.00 | 6.00 to 7.00 | > 7.00 | 6.00 to 7.00 | 6.00 to 7.00
Cn1cc2cc(-c3cc4cn(C5CCNCC5)nc4s3)c(O)c(F)c2n1 [Compound 215] | 5.00 to 6.00 | 5.00 to 6.00 | 6.00 to 7.00 | 6.00 to 7.00 | 6.00 to 7.00 | 6.00 to 7.00 | 6.00 to 7.00 | 5.00 to 6.00 | 6.00 to 7.00 | > 7.00 | 5.00 to 6.00 | 6.00 to 7.00
Cn1cc2cc(-n3cc4sc(C5CCNCC5)cc4n3)c(O)cc2n1 [Compound 178] | 5.00 to 6.00 | 5.00 to 6.00 | 5.00 to 6.00 | 5.00 to 6.00 | 5.00 to 6.00 | 5.00 to 6.00 | 5.00 to 6.00 | 5.00 to 6.00 | 5.00 to 6.00 | 5.00 to 6.00 | 5.00 to 6.00 | 5.00 to 6.00
CN(c1cc2nn(-c3ccc(-c4cn[nH]c4)cc3O)cc2s1)[C@@H]1C[C@H]2CC[C@@H](C1)N2 [Compound 148, 2-[5-[(1R,3R,5S)-8-azabicyclo[3.2.1]octan-3-yl(methyl)amino]thieno[3,2-c]pyrazol-2-yl]-5-(1H-pyrazol-4-yl)phenol] | 5.00 to 6.00 | 5.00 to 6.00 | 5.00 to 6.00 | 5.00 to 6.00 | 5.00 to 6.00 | 5.00 to 6.00 | 5.00 to 6.00 | < 5.00 | 5.00 to 6.00 | 5.00 to 6.00 | 5.00 to 6.00 | < 5.00
